Experimental data taken from US11021470B2, “2-substituted quinazoline compounds comprising a substituted heterocyclic group and methods of use thereof” (Araxes Pharma LLC, priority 2015, dated 2021).

Key:
[1] = Whole blood stability, monkey; assay type: in vitro ADME; conditions: 37° C.; for half-life at 5 µM: read-out: Whole Blood Stability (T1/2) (converted)
Experimental: (§1) Representative compounds of the invention were tested for their whole blood stability as follows:
(§2) Test compounds were prepared as a 500 μM stock solution in DMSO (Adding 10 μl of 10 mM DMSO stock solution to 190 μl of 100% DMSO). Whole blood was thawed on ice. A whole blood plate was prepared by adding 460 μl of the whole blood (different species as needed) to a 96-well in ml deep well plate. The whole blood plate was preincubated at 37° C. for 10 min. 4 μl of compound solution and 396 μl of whole blood was added to the plate and mixed thoroughly. Each sample was aliquoted (30 μl) to the incubation plate (cluster tubes) and quenched at time zero with ice-cold 100% ACN, and the incubation plates were added to the 37° C. incubator (200 μl).
(§3) The time zero sample was maintained at 4° C. until centrifuged. All other samples were quench at different time points (1, 2, 4 hr), vortexed for 30 seconds and centrifuged at 3500 rpm for 15 min at 4° C. 30 μl of supernatant was added to 170 μl 0.1% FA aqueous solution and the sample was analyzes by LC/MS/MS.

[2] = Whole blood stability, dog; assay type: in vitro ADME; conditions: 37° C.; for half-life at 5 µM: read-out: Whole Blood Stability (T1/2) (converted)
Experimental: as §1, §2, §3

[3] = biological target: T1, KRAS G12C 1-169, his-tagged protein, GDP-loaded (Homo sapiens, UniProt P01116, G12C); assay: KRAS G12C covalent binding (% modification) by mass spectrometry, ten or three minute incubation
T1 construct: KRAS G12C 1-169, his-tagged protein, GDP-loaded
Method in brief: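 GDP-loaded protein in 20 mM Hepes, 150 mM NaCl, 1 mM MgCl2 was incubated with compound (final 100, 30 or 10 μM; 2% DMSO) at room temperature, then quenched with formic acid. Intact-protein LC-MS with charge-envelope deconvolution gave masses and intensities of modified and unmodified species.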

[4] = covalent binding to KRAS G12C after a ten minute incubation period

Row | half-life at 5 µM [1] | half-life at 5 µM [2] | SMILES | Binding % [3, 4] | further results
1 | 408 min | 306 min | C=CC(=O)N1C[C@H](C)N(c2nc(N3CC(N(C)C)C3)nc3c(F)c(-c4c(O)cccc4F)c(Cl)cc23)C[C@H]1C (atropisomer, axis not shown) [Compound 52, 1-((2R,5S)-4-((S)-6-chloro-2-(3-(dimethylamino)azetidin-1-yl)-8-fluoro-7-(2-fluoro-6-hydroxyphenyl)quinazolin-4-yl)-2,5-dimethylpiperazin-1-yl)prop-2-en-1-one] | +++ (+++ indicates binding activity greater than 90%) | –
2 | 72 min | 78 min | C=CC(=O)N1CCN(c2nc(OCCN3CC(F)(F)C3)nc3c(F)c(-c4c(O)cccc4F)c(Cl)cc23)C[C@H]1C (atropisomer, axis not shown) [Compound 63, 1-((R)-4-((S)-6-chloro-2-(2-(3,3-difluoroazetidin-1-yl)ethoxy)-8-fluoro-7-(2-fluoro-6-hydroxyphenyl)quinazolin-4-yl)-2-methylpiperazin-1-yl)prop-2-en-1-one] | – | –
3 | 12 min | 36 min | C=CC(=O)N1CCN(c2nc(OCCN3CC(F)(F)C3)nc3c(F)c(-c4c(O)cccc4F)c(Cl)cc23)CC1 [C, reference compound] | – | –
4 | 87 min | 138 min | C=CC(=O)N1CCN(c2nc(N3CC(N(C)C)C3)nc3c(F)c(-c4c(O)cccc4F)c(Cl)cc23)C[C@H]1C (atropisomer, axis not shown) [Compound 60, 1-((R)-4-((S)-6-chloro-2-(3-(dimethylamino)azetidin-1-yl)-8-fluoro-7-(2-fluoro-6-hydroxyphenyl)quinazolin-4-yl)-2-methylpiperazin-1-yl)prop-2-en-1-one] | – | –
5 | 6 min | 36 min | C=CC(=O)N1CCN(c2nc(OCCN(CC)CC)nc3c(F)c(-c4c(O)cccc4F)c(Cl)cc23)CC1 [A, reference compound] | – | –
6 | 234 min | 288 min | C=CC(=O)N1C[C@H](C)N(c2nc(OCCN(CC)CC)nc3c(F)c(-c4c(O)cccc4F)c(Cl)cc23)C[C@H]1C (atropisomer, axis not shown) [Compound 75, 1-((2R,5S)-4-((S)-6-chloro-2-(2-(diethylamino)ethoxy)-8-fluoro-7-(2-fluoro-6-hydroxyphenyl)quinazolin-4-yl)-2,5-dimethylpiperazin-1-yl)prop-2-en-1-one] | – | –
7 | – | 180 min | C=CC(=O)N1C[C@H](C)N(c2nc(OCCN3CC(F)(F)C3)nc3c(F)c(-c4c(O)cccc4F)c(Cl)cc23)C[C@H]1C [Compound 38, 1-((2R,5S)-4-(6-chloro-2-(2-(3,3-difluoroazetidin-1-yl)ethoxy)-8-fluoro-7-(2-fluoro-6-hydroxyphenyl)quinazolin-4-yl)-2,5-dimethylpiperazin-1-yl)prop-2-en-1-one] | +++ (+++ indicates binding activity greater than 90%) | Whole Blood Stability (T1/2) [1]: 7.8 h

The next lines start with the compound.

Row | SMILES | half-life at 5 µM [1] | half-life at 5 µM [2] | Binding % [3, 4] | further results
8 | C=CC(=O)N1C[C@H](C)N(c2nc(N3CC(N(C)C)C3)nc3c(F)c(-c4c(C)ccc5cn[nH]c45)c(Cl)cc23)C[C@H]1C (atropisomer, axis not shown) [Compound 72, 1-((2R,5S)-4-((R)-6-chloro-2-(3-(dimethylamino)azetidin-1-yl)-8-fluoro-7-(6-methyl-1H-indazol-7-yl)quinazolin-4-yl)-2,5-dimethylpiperazin-1-yl)prop-2-en-1-one] | – | – | +++ (+++ indicates binding activity greater than 90%) | Whole Blood Stability (T1/2) [1]: 3.9 h; Whole Blood Stability (T1/2) [2]: 5.95 h
9 | C=CC(=O)N1[C@H](C)CN(c2nc(N3CC(N(C)C)C3)nc3c(F)c(-c4c(O)cccc4F)c(Cl)cc23)C[C@@H]1C [Compound 68, 1-((2R,6S)-4-((R)-6-chloro-2-(3-(dimethylamino)azetidin-1-yl)-8-fluoro-7-(2-fluoro-6-hydroxyphenyl)quinazolin-4-yl)-2,6-dimethylpiperazin-1-yl)prop-2-en-1-one] | 60 min | 96 min | – | –
10 | C=CC(=O)N1CCN(c2nc(N3CC(N(C)C)C3)nc3c(F)c(-c4c(C)ccc5cn[nH]c45)c(Cl)cc23)C[C@H]1C (atropisomer, axis not shown) [Compound 70, 1-((R)-4-((R)-6-chloro-2-(3-(dimethylamino)azetidin-1-yl)-8-fluoro-7-(6-methyl-1H-indazol-7-yl)quinazolin-4-yl)-2-methylpiperazin-1-yl)prop-2-en-1-one] | 78 min | 180 min | – | –
11 | C=CC(=O)N1C[C@H](C)N(c2nc(N3CC(N(C)C)C3)nc3c(F)c(-c4c(O)cccc4F)c(Cl)cc23)C[C@H]1C (atropisomer, axis not shown) [Compound 53, 1-((2R,5S)-4-((R)-6-chloro-2-(3-(dimethylamino)azetidin-1-yl)-8-fluoro-7-(2-fluoro-6-hydroxyphenyl)quinazolin-4-yl)-2,5-dimethylpiperazin-1-yl)prop-2-en-1-one] | – | – | ++ (++ indicates binding activity from 50 to 90%) | –
12 | C=CC(=O)N1CCN(c2nc(OCCc3ncccn3)nc3c(F)c(-c4c(O)cccc4F)c(Cl)cc23)C[C@H]1C (atropisomer, axis not shown) [Compound 267, 1-((R)-4-(6-chloro-8-fluoro-7-((R)-2-fluoro-6-hydroxyphenyl)-2-(2-(pyrimidin-2-yl)ethoxy)quinazolin-4-yl)-2-methylpiperazin-1-yl)prop-2-en-1-one] | – | – | – | Binding % ([3]; covalent binding to KRAS G12C, % modification after a three minute incubation period): + (+ indicates binding activity greater than 0% and up to 50%)
13 | C=CC(=O)N1CCN(c2nc(N3CC(N(C)C)C3)nc3c(F)c(-c4c(O)cccc4F)c(Cl)cc23)CC1 [B, reference compound] | 6 min | 42 min | – | –
14 | C=CC(=O)N1C[C@H](C)N(c2nc(OCCN(CC)CC)nc3c(F)c(-c4c(O)cccc4F)c(Cl)cc23)C[C@H]1C (atropisomer, axis not shown) [Compound 74, 1-((2R,5S)-4-((R)-6-chloro-2-(2-(diethylamino)ethoxy)-8-fluoro-7-(2-fluoro-6-hydroxyphenyl)quinazolin-4-yl)-2,5-dimethylpiperazin-1-yl)prop-2-en-1-one] | – | – | ++ (++ indicates binding activity from 50 to 90%) | –
